Measurements taken from PubChem BioAssay AID2060888 (Molecular Pharmacology Branch, DTP, NCI, 2025).

Test system: 695427-040-R-J1-PDC complex spheroid viability
Test: Anticancer human tumor 695427-040-R-J1-PDC patient-derived colon adenocarcinoma cell line growth inhibition [RAS]
Settings: for IC50: curve of first compound; for viability, T/C: stronger effect = lower value
Description: RAS pathway inhibitors in Combinations in Complex Spheroids
A high-throughput screen of multi-cell type tumor spheroids was designed to identify active combinations of RAS pathway inhibitors and targeted small molecules. Complex spheroids include a stromal component modeled by human endothelial cells (HUVEC) and fibroblasts modeled by human mesenchymal stem cells (MSCs). The concentration ranges selected for each drug and investigational agent were based upon clinically achievable concentrations if the clinical Cmax of the agent was known.
Compounds. The drugs and investigational agents: abemaciclib (NSC768073), cobimetinib (NSC768068), divarasib (GDC6063, NSC841802), docetaxel (NSC628503), GDC-1971 (RLY-1971, NSC841576), gemcitabine (NSC613327), inavolisib (NSC800729), ipatasertib (NSC767898), KB-0742 (NSC834161), MRTX-1133 (NSC836407), osimertinib (NSC779217), RMC-4630 (NSC839698), RMC-6236 (NSC851965), RMC-6291 (NSC852671), Ro-3306 (NSC812927), sapanisertib (NSC764658), SN-38 (NSC673596), staurosporine (NSC755774), SY5609 (NSC837396), and tovorafenib (DAY101, NSC766906), were obtained from the National Cancer Institute (NCI) Developmental Therapeutics Program Chemical Repository. The FDA-approved anticancer drug set is available from the NCI Developmental Therapeutics Program. […] The stock solutions were prepared in dimethyl sulfoxide (DMSO, Sigma-Aldrich, St. Louis, MO, cat. D2650) at 800-fold the tested concentration and stored at -70 degrees C prior to their use. All drugs and investigational agents were tested over a range starting from a high concentration at or near the clinical Cmax and decreasing in half-log increments. If the clinical Cmax for an agent had not been determined, the highest concentration tested was 10 microM.
Cell Culture. All cells were maintained in an incubator at 37 degrees C and 5% CO2 with 95% humidity. The PDC lines were cultured according to standard operating procedures established by the NCI PDMR. All PDCs were thawed and cultured in Matrigel-coated flasks prepared with a working solution of 1X Ham's F-12 nutrient mix, without supplementation (Invitrogen, Waltham, MA, cat. 11765054), 100 U/mL penicillin-streptomycin (Invitrogen, cat. 15140122), and 2.5% Matrigel (Corning Inc., Corning, NY, cat. 354248) for the first three passages. The 362531-283-R-J2-PDC and 782815-120-R-J1-PDC lines were cultured in 6C/Colon 1B media, which includes advanced DMEM/F-12 (Thermo Fisher Scientific, cat. 12634028), 10 mM HEPES (Thermo Fisher Scientific, cat. 15630080), 1X GlutaMAX supplement (Thermo Fisher Scientific, cat. 35050061), 0.1 mg/mL primocin (InvivoGen, San Diego, CA, cat. ant-pm-2), 10% defined fetal bovine serum, heat inactivated (HyClone Laboratories Inc., Logan, UT, cat. SH30070.03HI), 50% L-WRN conditioned media (ATCC, cat. CRL-3276), 1.25 mM N-Acetyl-L-cysteine (Sigma-Aldrich, cat. A9165), 10 mM nicotinamide (Sigma-Aldrich, cat. N0636), 1X B-27 supplement (Thermo Fisher Scientific, cat. 17504044), 1X N-2 supplement (Thermo Fisher Scientific, cat. 17502048), 50 ng/mL human EGF (Thermo Fisher Scientific, cat. PHG0311), and 10 microM Y-27632 dihydrochloride (Tocris Bioscience, cat. 1254). The K12877-001-R-J1-PDC line was cultured in 6I media, which includes all 6C/Colon 1B media plus 10 ng/mL human FGF-10 (PeproTech, cat. 100-26), 1 ng/mL human FGF-2 (PeproTech, cat. 100-18B), 1 µM prostaglandin E2 (Tocris Bioscience, cat. 2296), […] hydrocortisone (Sigma-Aldrich, cat. H4001), and […] bovine insulin (Sigma-Aldrich, cat. I6634). The K86415-001-R-J1-PDC line was cultured in 6D media, which includes all 6C/Colon 1B media components minus the L-WRN conditioned media. The 485176-168-R4-J1-PDC was cultured in PANC media, which includes all 6C/Colon 1B media plus 100 ng/mL human FGF-10 (PeproTech, cat. 100-26), 500 nM SB-431542 (Selleckchem, cat. S1067), and 10 nM gastrin (Tocris Bioscience, cat. 3006). […]

[1] = second compound 0.0316 µM, first compound 0.0316 µM
[2] = second compound 0.0316 µM, first compound 0.1 µM
[3] = second compound 0.0316 µM, first compound 0.316 µM
[4] = second compound 0.0316 µM, first compound 1 µM
[5] = second compound 0.1 µM, first compound 0.0316 µM
[6] = second compound 0.1 µM, first compound 0.1 µM
[7] = second compound 0.1 µM, first compound 0.316 µM
[8] = second compound 0.1 µM, first compound 1 µM
[9] = second compound 0.316 µM, first compound 0.0316 µM
[10] = second compound 0.316 µM, first compound 0.1 µM
[11] = second compound 0.316 µM, first compound 0.316 µM
[12] = second compound 0.316 µM, first compound 1 µM
[13] = second compound 1 µM, first compound 0.0316 µM
[14] = second compound 1 µM, first compound 0.1 µM
[15] = second compound 1 µM, first compound 0.316 µM
[16] = second compound 1 µM, first compound 1 µM
[17] = second compound 3.16 µM, first compound 0.0316 µM
[18] = second compound 3.16 µM, first compound 0.1 µM
[19] = second compound 3.16 µM, first compound 0.316 µM
[20] = second compound 3.16 µM, first compound 1 µM
[21] = second compound 10 µM, first compound 0.0316 µM
[22] = second compound 10 µM, first compound 0.1 µM
[23] = second compound 10 µM, first compound 0.316 µM
[24] = second compound 10 µM, first compound 1 µM
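Further: viability read after seven days of drug exposure.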
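Wherever viability, T/C is given: 100% = DMSO vehicle control viability.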

Question: How did the IC50 (second compound 0.0316 µM) turn out when CC(Nc1ccc2c(c1)OCCn1cc(N3C(=O)OCC3C(F)F)nc1-2)C(N)=O (centres undefined) + C#Cc1c(F)ccc2cc(O)cc(-c3ncc4c(N5CC6CCC(C5)N6)nc(OCC56CCCN5CC(F)C6)nc4c3F)c12 was run?
Answer: 1550 nM

Question: And the IC50 (second compound 0.1 µM)?
Answer: 933 nM

Question: And the IC50 (second compound 0.316 µM)?
Answer: 422 nM

Question: And the IC50 (second compound 1 µM)?
Answer: 168 nM

Question: And the IC50 (second compound 3.16 µM)?
Answer: < 31.6 nM

Question: What about the IC50 (second compound 10 µM) of the same compound?
Answer: < 31.6 nM

Question: What about the viability, T/C [1] of the same compound?
Answer: 78.2%

Question: And the viability, T/C [2]?
Answer: 69.5%

Question: And the viability, T/C [3]?
Answer: 58.5%

Question: What about the viability, T/C [4] of the same compound?
Answer: 52.1%

Question: And the viability, T/C (second compound 0.0316 µM, first compound 3.16 µM)?
Answer: 47.9%

Question: What about the viability, T/C (second compound 0.0316 µM, first compound 10 µM) of the same compound?
Answer: 40.1%

Question: What about the viability, T/C [5] of the same compound?
Answer: 77%

Question: What about the viability, T/C [6] of the same compound?
Answer: 69.7%

Question: What about the viability, T/C [7] of the same compound?
Answer: 59.6%

Question: And the viability, T/C [8]?
Answer: 49.9%

Question: What about the viability, T/C (second compound 0.1 µM, first compound 3.16 µM) of the same compound?
Answer: 40.4%

Question: And the viability, T/C (second compound 0.1 µM, first compound 10 µM)?
Answer: 35.4%

Question: And the viability, T/C [9]?
Answer: 76.7%

Question: What about the viability, T/C [10] of the same compound?
Answer: 67.1%

Question: What about the viability, T/C [11] of the same compound?
Answer: 52%

Question: And the viability, T/C [12]?
Answer: 39.9%

Question: What about the viability, T/C (second compound 0.316 µM, first compound 3.16 µM) of the same compound?
Answer: 40.5%

Question: And the viability, T/C (second compound 0.316 µM, first compound 10 µM)?
Answer: 30.3%

Question: What about the viability, T/C [13] of the same compound?
Answer: 63.1%

Question: And the viability, T/C [14]?
Answer: 54%

Question: What about the viability, T/C [15] of the same compound?
Answer: 45.9%

Question: What about the viability, T/C [16] of the same compound?
Answer: 34.8%

Question: What about the viability, T/C (second compound 1 µM, first compound 3.16 µM) of the same compound?
Answer: 31.9%

Question: And the viability, T/C (second compound 1 µM, first compound 10 µM)?
Answer: 23.1%

Question: What about the viability, T/C [17] of the same compound?
Answer: 47.4%

Question: And the viability, T/C [18]?
Answer: 38.3%

Question: And the viability, T/C [19]?
Answer: 30.3%

Question: What about the viability, T/C [20] of the same compound?
Answer: 23.9%

Question: What about the viability, T/C (second compound 3.16 µM, first compound 3.16 µM) of the same compound?
Answer: 22%

Question: And the viability, T/C (second compound 3.16 µM, first compound 10 µM)?
Answer: 16.9%

Question: What about the viability, T/C [21] of the same compound?
Answer: 33.8%

Question: And the viability, T/C [22]?
Answer: 22.1%

Question: What about the viability, T/C [23] of the same compound?
Answer: 17.1%

Question: What about the viability, T/C [24] of the same compound?
Answer: 13.6%

Question: What about the viability, T/C (second compound 10 µM, first compound 3.16 µM) of the same compound?
Answer: 12%

Question: What about the viability, T/C (second compound 10 µM, first compound 10 µM) of the same compound?
Answer: 10.9%

Question: With O=C(c1ccc(F)c(F)c1Nc1ccc(I)cc1F)N1CC(O)([C@@H]2CCCCN2)C1 + C#Cc1c(F)ccc2cc(O)cc(-c3ncc4c(N5CC6CCC(C5)N6)nc(OCC56CCCN5CC(F)C6)nc4c3F)c12 as the compound, how does the IC50 (second compound 0.0316 µM) read?
Answer: 40.4 nM

Question: And the IC50 (second compound 0.1 µM)?
Answer: 31.5 nM

Question: And the IC50 (second compound 0.316 µM)?
Answer: 31.4 nM

Question: And the IC50 (second compound 1 µM)?
Answer: 17.7 nM

Question: And the IC50 (second compound 3.16 µM)?
Answer: 3.68 nM

Question: And the IC50 (second compound 10 µM)?
Answer: < 3.16 nM

Question: And the viability, T/C (second compound 0.0316 µM, first compound 0.00316 µM)?
Answer: 93.3%

Question: And the viability, T/C (second compound 0.0316 µM, first compound 0.01 µM)?
Answer: 77%

Question: And the viability, T/C [1]?
Answer: 55.7%

Question: What about the viability, T/C [2] of the same compound?
Answer: 30.5%

Question: What about the viability, T/C [3] of the same compound?
Answer: 15.2%

Question: And the viability, T/C [4]?
Answer: 2.92%

Question: And the viability, T/C (second compound 0.1 µM, first compound 0.00316 µM)?
Answer: 92.1%

Question: And the viability, T/C (second compound 0.1 µM, first compound 0.01 µM)?
Answer: 65.7%

Question: What about the viability, T/C [5] of the same compound?
Answer: 53.8%

Question: What about the viability, T/C [6] of the same compound?
Answer: 30.9%

Question: And the viability, T/C [7]?
Answer: 15.7%

Question: What about the viability, T/C [8] of the same compound?
Answer: 2.78%

Question: What about the viability, T/C (second compound 0.316 µM, first compound 0.00316 µM) of the same compound?
Answer: 82.9%

Question: And the viability, T/C (second compound 0.316 µM, first compound 0.01 µM)?
Answer: 65.5%

Question: What about the viability, T/C [9] of the same compound?
Answer: 52.6%

Question: What about the viability, T/C [10] of the same compound?
Answer: 29.9%

Question: And the viability, T/C [11]?
Answer: 17%

Question: And the viability, T/C [12]?
Answer: 4.73%

Question: And the viability, T/C (second compound 1 µM, first compound 0.00316 µM)?
Answer: 59.1%

Question: What about the viability, T/C (second compound 1 µM, first compound 0.01 µM) of the same compound?
Answer: 53.4%

Question: And the viability, T/C [13]?
Answer: 47%

Question: What about the viability, T/C [14] of the same compound?
Answer: 23.4%

Question: And the viability, T/C [15]?
Answer: 12.8%

Question: And the viability, T/C [16]?
Answer: 3.39%

Question: And the viability, T/C (second compound 3.16 µM, first compound 0.00316 µM)?
Answer: 52.2%

Question: And the viability, T/C (second compound 3.16 µM, first compound 0.01 µM)?
Answer: 38.5%

Question: What about the viability, T/C [17] of the same compound?
Answer: 23.7%

Question: What about the viability, T/C [18] of the same compound?
Answer: 19.6%

Question: And the viability, T/C [19]?
Answer: 8.05%

Question: And the viability, T/C [20]?
Answer: 2.3%

Question: And the viability, T/C (second compound 10 µM, first compound 0.00316 µM)?
Answer: 30.1%

Question: What about the viability, T/C (second compound 10 µM, first compound 0.01 µM) of the same compound?
Answer: 32.8%

Question: And the viability, T/C [21]?
Answer: 22.5%

Question: What about the viability, T/C [22] of the same compound?
Answer: 11.1%

Question: What about the viability, T/C [23] of the same compound?
Answer: 2.72%

Question: What about the viability, T/C [24] of the same compound?
Answer: 1.31%
